pIC50: −log10 of the molar value.
Key:
Type in all cases: cell-based, human
HTT [1] = assay: Splicing RT-qPCR assay, HTT mRNA canonical junction (CJ) and alternative junction (AJ); settings: Homo sapiens, gene panel, CJ qPCR, protocol of Example 142; read-out: HTT IC50 (decrease in CJ mRNA levels)
Procedure, shortened: (§1)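 Splice switching is measured in A673 or K562 cells after 24 h compound exposure (maximum 10 uM, 3-fold steps). Canonical and alternative junction mRNA levels are quantified by RT-qPCR relative to housekeeper and DMSO.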

HTT [2] = assay: HiBiT protein abundance assay, HTT; settings: Homo sapiens, Table 13B, modified K562 cells
Procedure, shortened: (§2)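 HiBiT-tagged endogenous targets in K562 cells treated 24 h at 37° C. with 10-point 3-fold dilutions (top 10 μM, DMSO ≤0.25%). Luminescence read after lytic LgBiT detection; response normalised to unmodified-cell and DMSO controls, IC50 interpolated at 50% from four-parameter logistic fit.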

MYB [3] = assay: Splicing RT-qPCR assay, MYB mRNA canonical junction (CJ) and alternative junction (AJ); settings: Homo sapiens, gene panel, CJ qPCR, protocol of Example 142; read-out: MYB IC50 (decrease in CJ mRNA levels)
Procedure, shortened: as §1

MYB [4] = assay: HiBiT protein abundance assay, MYB; settings: Homo sapiens, Table 13B, modified K562 cells
Procedure, shortened: as §2

Target C [5] = assay: HiBiT protein abundance assay, Target C; settings: Homo sapiens, Table 13B, modified K562 cells
Procedure, shortened: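 HiBiT knock-in K562-derived cells seeded at 10000/well and treated with 10-point 3-fold dilutions (top final 10 μM, ≤0.25% DMSO) for 24 h at 37 °C. Lytic HiBiT luminescence normalised to unmodified-cell and DMSO controls; IC50 from 4-parameter fit at 50% abundance.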

SMN2 = assay: Splicing RT-qPCR panel, SMN2 canonical junction (CJ) mRNA; settings: Homo sapiens, gene panel, CJ qPCR, protocol of Example 142; read-out: SMN2 IC50 (decrease in CJ mRNA levels)
Procedure, shortened: as §1

Target C [6] = assay: Splicing RT-qPCR panel, Target C canonical junction (CJ) mRNA; settings: Homo sapiens, gene panel, CJ qPCR, protocol of Example 142; read-out: Target C IC50 (decrease in CJ mRNA levels)
Procedure, shortened: as §1

COc1nc(-c2ccc(N(C)[C@@H]3C[C@H]4CC[C@@H](C3)N4)nn2)ccc1-n1cccn1 [Compound 907]
pIC50 (HTT [1]): 6.00 to 7.00
pIC50 (HTT [2]; 24 hours): 6.00 to 7.00
pIC50 (MYB [3]): 5.00 to 6.00
pIC50 (MYB [4]; 24 hours): 5.00 to 6.00
pIC50 (Target C [5]; 24 hours): 5.00 to 6.00
pIC50 (SMN2): 6.00 to 7.00
pIC50 (Target C [6]): < 5.00

COc1nc(-c2ccc(N(C)[C@H]3CCN[C@@H](C)C3)nn2)ccc1-n1cccn1 [Compound 908]
pIC50 (HTT [1]): < 5.00
pIC50 (HTT [2]; K562, 24 h): 5.00 to 6.00
pIC50 (MYB [3]): < 5.00
pIC50 (MYB [4]; K562, 24 h): 5.00 to 6.00
pIC50 (Target C [5]; K562, 24 h): < 5.00
pIC50 (SMN2): 5.00 to 6.00
pIC50 (Target C [6]): 5.00 to 6.00

Cc1nc(-c2ccc(N(C)[C@@H]3C[C@H]4CC[C@@H](C3)N4)nn2)ccc1-c1cn[nH]c1 [Compound 912]
pIC50 (HTT [1]): 5.00 to 6.00
pIC50 (HTT [2]; K562, 24 h): 5.00 to 6.00
pIC50 (MYB [3]): 5.00 to 6.00
pIC50 (MYB [4]; K562, 24 h): 5.00 to 6.00
pIC50 (Target C [5]; K562, 24 h): 5.00 to 6.00
pIC50 (SMN2): 6.00 to 7.00
pIC50 (Target C [6]): 5.00 to 6.00

COc1nc(-c2ccc(N(C)[C@@H]3C[C@H]4CC[C@@H](C3)N4)nn2)ncc1-c1cn[nH]c1 [Compound 913]
pIC50 (HTT [1]): 5.00 to 6.00
pIC50 (HTT [2]; K562, 24 h): 5.00 to 6.00
pIC50 (MYB [3]): 5.00 to 6.00
pIC50 (MYB [4]; K562, 24 h): 5.00 to 6.00
pIC50 (Target C [5]; K562, 24 h): 5.00 to 6.00
pIC50 (SMN2): 5.00 to 6.00
pIC50 (Target C [6]): 5.00 to 6.00

COc1cc(-c2ccc(N(C)[C@@H]3C[C@H]4CC[C@@H](C3)N4)nn2)ccc1-c1cn[nH]c1 [Compound 914]
pIC50 (HTT [1]): 6.00 to 7.00
pIC50 (HTT [2]; K562, 24 h): 5.00 to 6.00
pIC50 (MYB [3]): 5.00 to 6.00
pIC50 (MYB [4]; K562, 24 h): 5.00 to 6.00
pIC50 (Target C [5]; K562, 24 h): 6.00 to 7.00
pIC50 (SMN2): > 7.00
pIC50 (Target C [6]): 6.00 to 7.00

CN(c1ccc(-c2ccc(-c3cn[nH]c3)c(C(F)(F)F)n2)nn1)[C@@H]1C[C@H]2CC[C@@H](C1)N2 [Compound 916]
pIC50 (HTT [1]): < 5.00
pIC50 (HTT [2]; K562, 24 h): < 5.00
pIC50 (MYB [3]): < 5.00
pIC50 (MYB [4]; K562, 24 h): < 5.00
pIC50 (Target C [5]; K562, 24 h): < 5.00
pIC50 (SMN2): < 5.00
pIC50 (Target C [6]): < 5.00

COc1cc(-c2ccc(N(C)[C@@H]3C[C@H]4CC[C@@H](C3)N4)nn2)ncc1-c1cn[nH]c1 [Compound 921]
pIC50 (HTT [1]): < 5.00
pIC50 (HTT [2]; K562, 24 h): < 5.00
pIC50 (MYB [3]): < 5.00
pIC50 (MYB [4]; K562, 24 h): 5.00 to 6.00
pIC50 (Target C [5]; K562, 24 h): < 5.00
pIC50 (SMN2): 5.00 to 6.00
pIC50 (Target C [6]): < 5.00

CN(c1ccc(-c2ccc(-c3cn[nH]c3)c(Cl)n2)nn1)[C@@H]1C[C@H]2CC[C@@H](C1)N2 [Compound 923]
pIC50 (HTT [1]): > 7.00
pIC50 (HTT [2]; K562, 24 h): > 7.00
pIC50 (MYB [3]): 6.00 to 7.00
pIC50 (MYB [4]; K562, 24 h): 6.00 to 7.00
pIC50 (Target C [5]; K562, 24 h): > 7.00
pIC50 (SMN2): > 7.00
pIC50 (Target C [6]): 6.00 to 7.00

COc1nc(-c2ccc(NC3CCNCC3)nn2)ccc1-c1cn[nH]c1 [Compound 924]
pIC50 (HTT [1]): 5.00 to 6.00
pIC50 (HTT [2]; K562, 24 h): < 5.00
pIC50 (MYB [3]): < 5.00
pIC50 (MYB [4]; K562, 24 h): 5.00 to 6.00
pIC50 (Target C [5]; K562, 24 h): < 5.00
pIC50 (SMN2): 6.00 to 7.00
pIC50 (Target C [6]): < 5.00

COc1nc(-c2ccc(NC3CCNCC3)nn2)ccc1-c1cnn(C)c1 [Compound 925]
pIC50 (HTT [1]): 5.00 to 6.00
pIC50 (HTT [2]; K562, 24 h): 5.00 to 6.00
pIC50 (MYB [3]): 5.00 to 6.00
pIC50 (MYB [4]; K562, 24 h): 5.00 to 6.00
pIC50 (Target C [5]; K562, 24 h): 5.00 to 6.00
pIC50 (SMN2): 6.00 to 7.00
pIC50 (Target C [6]): < 5.00

COc1nc(-c2ccc(OC3CC(C)(C)NC(C)(C)C3)nn2)ccc1-c1cnn(C)n1 [Compound 926]
pIC50 (HTT [1]): 6.00 to 7.00
pIC50 (HTT [2]; K562, 24 h): 6.00 to 7.00
pIC50 (MYB [3]): 5.00 to 6.00
pIC50 (MYB [4]; K562, 24 h): 5.00 to 6.00
pIC50 (Target C [5]; K562, 24 h): 6.00 to 7.00
pIC50 (SMN2): 6.00 to 7.00
pIC50 (Target C [6]): 5.00 to 6.00

COc1nc(-c2ccc(N(C)C3CC(C)(C)NC(C)(C)C3)nn2)ccc1-c1cnn(C)n1 [Compound 927]
pIC50 (HTT [1]): 6.00 to 7.00
pIC50 (HTT [2]; K562, 24 h): 6.00 to 7.00
pIC50 (MYB [3]): 5.00 to 6.00
pIC50 (MYB [4]; K562, 24 h): 6.00 to 7.00
pIC50 (Target C [5]; K562, 24 h): 6.00 to 7.00
pIC50 (SMN2): 6.00 to 7.00
pIC50 (Target C [6]): 5.00 to 6.00

COc1nc(-c2ccc(N(C)[C@@H]3C[C@H]4CC[C@@H](C3)N4)nn2)cnc1-c1cn[nH]c1 [Compound 928]
pIC50 (HTT [1]): 6.00 to 7.00
pIC50 (HTT [2]; K562, 24 h): 6.00 to 7.00
pIC50 (MYB [3]): 6.00 to 7.00
pIC50 (MYB [4]; K562, 24 h): 6.00 to 7.00
pIC50 (Target C [5]; K562, 24 h): 6.00 to 7.00
pIC50 (SMN2): > 7.00
pIC50 (Target C [6]): 6.00 to 7.00

CCOc1nc(-c2ccc(N(C)[C@@H]3C[C@H]4CC[C@@H](C3)N4)nn2)ccc1-c1cn[nH]c1 [Compound 929]
pIC50 (HTT [1]): > 7.00
pIC50 (HTT [2]; K562, 24 h): > 7.00
pIC50 (MYB [3]): > 7.00
pIC50 (MYB [4]; K562, 24 h): > 7.00
pIC50 (Target C [5]; K562, 24 h): > 7.00
pIC50 (SMN2): > 7.00
pIC50 (Target C [6]): > 7.00

Source: patent publication US20240368163A1, “COMPOUNDS AND METHODS FOR MODULATING SPLICING” (REMIX THERAPEUTICS INC., priority 2021, published 2024)
